Like-named read-outs stand apart in the source and are kept apart here.

These results are taken from patent USRE39087E1, “Azithromycin monohydrate isopropanol clathrate and methods for the manufacture thereof” (Apotex, Inc., priority 1998, dated 2006).

The conditions of series [1]: solid form, known from prior patents (EP 298 650 B1, CA 1,314,876), cited from earlier work.
The nature of series [2]: Extended vacuum drying, water (Karl-Fischer) and isopropanol (gas chromatography) content. The conditions noted are these: vacuum 1-10 mm Hg, 50° C. to 60° C., beyond 12-24 hours. The format is physicochemical. How it is done: According to this invention, azithromycin monohydrate isopropanol clathrate contains three molecules of isopropanol for every ten molecules of azithromycin monohydrate. The process comprises the dissolution of azithromycin in isopropanol to which water is added slowly while stirring, resulting in the precipitation of crystalline azithromycin monohydrate isopropanol clathrate. The volume of solvent used is such as to be sufficient to dissolve azithromycin. The addition of the water is carried out between 0° and 30° C. and preferably between 15° C. to 25° C. The product is filtered and washed with a mixture of water-isopropanol and dried under vacuum (1-10 mm Hg) at 50° C. to 60° C. for 12-24 hours to obtain azithromycin monohydrate isopropanol clathrate in high yields. […] The water content of azithromycin monohydrate isopropanol clathrate was measured by the Karl-Fischer method and its isopropanol content was determined by gas chromatography.

Series [3] in a line: Hygroscopicity of azithromycin forms. The format is physicochemical. The conditions noted are these: solid form.

On to `CC[C@H]1OC(=O)[C@H](C)[C@@H](O[C@H]2C[C@@](C)(OC)[C@@H](O)[C@H](C)O2)[C@H](C)[C@@H](O[C@@H]2O[C@H](C)C[C@H](N(C)C)[C@H]2O)[C@](C)(O)C[C@@H](C)CN(C)[C@H](C)[C@@H](O)[C@]1(C)O` [Azithromycin monohydrate, azithromycin monohydrate], for which the hygroscopicity entry in series [1] (monohydrate) is reported as “hygroscopic”.

For the compound “azithromycin monohydrate isopropanol clathrate”, in series [2], the “effect of extension of vacuum drying on water and isopropanol content” value was “does not reduce either the water content or the isopropanol content”. The hygroscopicity result in series [3] is given as “not hygroscopic”.

`CC[C@H]1OC(=O)[C@H](C)[C@@H](O[C@H]2C[C@@](C)(OC)[C@@H](O)[C@H](C)O2)[C@H](C)[C@@H](O[C@@H]2O[C@H](C)C[C@H](N(C)C)[C@H]2O)[C@](C)(O)C[C@@H](C)CN(C)[C@H](C)[C@@H](O)[C@]1(C)O` [azithromycin dihydrate]: in series [1] (dihydrate), the hygroscopicity entry is “not hygroscopic”.
